IC50 data for nine compounds are collected here from ChEMBL document CHEMBL1123021, “3-Amino-beta-carboline derivatives and the benzodiazepine receptor. Synthesis of a selective antagonist of the sedative action of diazepam” (J Med Chem, 1985).

This assay deals with GABA-A receptor; anion channel. Nature of the assay: Inhibition of [3H]- flunitrazepam binding to GABA-A Benzodiazepine receptor of rat cerebral cortex membranes. The class given is cell membranes, Membrane.
A word on the IC50: it is the concentration needed to halve the response being measured. Low readings indicate higher potency, high ones lower potency. For `CS(=O)(=O)Nc1cc2c3ccccc3nc-2c[nH]1`, the IC50 was determined as 62 µM.

As to `COC(=O)Nc1cc2c3ccccc3nc-2c[nH]1`, the IC50 worked out at 0.071 µM.

The compound `O=C(Nc1cc2c3ccccc3nc-2c[nH]1)C(F)(F)F` gave an IC50 of 6.3 µM.

As for `CC(=O)Nc1cc2c3ccccc3nc-2c[nH]1`, the IC50 was 4 µM.

As to `Nc1cc2c(cn1)[nH]c1ccccc12`, the IC50 amounted to 25 µM.

As for `O=CNc1cc2c3ccccc3nc-2c[nH]1`, the 50% inhibitory concentration (IC50) amounted to 4.7 µM. Compared with the last compound, the IC50 is about 5.3-fold lower.

Compound `CCOC(=O)Nc1cc2c3ccccc3nc-2c[nH]1` returned an IC50 of 0.08 µM.

For the compound `CCNc1cc2c3ccccc3nc-2c[nH]1`, the IC50 worked out at 0.46 µM.

As for `CCOC(=O)c1cc2c(cn1)[nH]c1ccccc12`, the IC50 stood at 0.002 µM. This IC50 lies about 230-fold lower than the previous one.
